Target: Arachidonate 5-lipoxygenase (Rattus norvegicus)
Test: Ability to inhibit 5-lipoxygenase in rat

IC50: 19.6 µM
SMILES: CN1C[C@@H](c2cccc(OCc3ccc4ccccc4n3)c2)OC1=O

Source: BindingDB's records for doi:10.1021/jm00394a026 (Wyeth Laboratories, 1987)
